Converted amounts (≈) assume the structure as drawn. “Also recorded” adds a separate entry of the source.
Assays:
[1] = In vivo ocular tissue distribution after single topical eye drop; design: species or system pigmented rabbits
Procedure: Male New Zealand Satin rabbits in the weight range of 1.8 to 3 kg were obtained from Western Oregon Rabbit Company (Philmoth, Oreg.). Rabbits were divided into two groups (2 animals each), one group received GFX solution (5 mg/ml) in sterile phosphate buffer saline (PBS), and the other group received the GFX-ARG (1:1) ion pair complex (5.0 mg/ml) solution in PBS. Rabbits were restrained in a rabbit restrainer and allowed to stabilize for 5-10 minutes. A topical eye drop (30 μl) of drug solution was applied in both eyes of rabbits using a positive displacement pipette (Gilson 10-100 μl) and sterile tips. To minimize the runoff of instilled dose, the eyelids were gently closed for few seconds after dosing. The time of dose administered was recorded for each animal. After 1 hr of dosing, blood samples were collected from the marginal ear vein and rabbits were euthanized by intravenous injection of sodium pentobarbitone (150 mg/kg) in the marginal ear vein. […]
GFX content in rabbit ocular tissues was measured from the tissues by acetonitrile based extraction. […]
The aqueous humor and vitreous samples were analyzed directly after dilution, without extraction. […]
GFX concentrations in the transport study and ocular tissue samples were analyzed using a validated LC-MS/MS method. […]

[2] = test system: New Zealand white rabbit cornea; assay: In vitro transport across rabbit cornea (Ussing chamber); type: in vitro ADME; conditions: for transport in presence of OCT competitive inhibitor MPP+: MPP+ 500 μM for GFX-ARG ion pair
Procedure: (§1) In vitro transport of […], and GFX-LYS were carried out across the New Zealand white rabbit cornea and sclera-choroid-[…]). Rabbit eyes were obtained within 24 hr of harvesting from Pel-Freez Biologicals (Rogers, Ark.) and shipped overnight in Hank's balanced salt solution on wet ice. Eyes were used immediately upon arrival. Eyes were washed with assay buffer and cleaned from the muscle and unwanted tissues. […] The small part of the sclera left with cornea helps in mounting the cornea on Ussing chambers. For isolation of the SCRPE, anterior and posterior parts were separated by a circumferential cut at the limbus. […] After separation of the retina, the eye cup was flattened with small cuts around the globe. […] A circulating water bath was used to maintain the temperature at 37° C. during the transport study. The pH of the assay buffer was maintained at 7.4 using 95% air-5% CO2 aeration which also helps in stirring of bathing solutions. Samples were collected (200 μL) from the receiver side every 30 minute for 3 hr and the lost volume was replaced with fresh assay buffer pre-equilibrated at 37° C. GFX levels were analyzed using an LC-MS/MS assay. […] GFX concentrations in the transport study and ocular tissue samples were analyzed using a validated LC-MS/MS method. […] Chromatographic separation of GFX and the internal standard moxifloxacin was performed on Obelisc C18 column (2.1×10 mm, 3 μm). Elution of analytes was performed using linear gradient elution with mobile phase consisting of 5 mM ammonium formate (pH 3.5) and acetonitrile (pH 3.5) with a flow rate of 300 μl/min and total run time of 6 min.

[3] = test system: New Zealand white rabbit sclera-choroid-RPE (SCRPE); assay: In vitro transport across rabbit sclera-choroid-RPE (Ussing chamber); type: in vitro ADME; conditions: rabbit SCRPE; for transport in presence of OCT competitive inhibitor MPP+: MPP+ 500 μM for GFX-ARG ion pair
Procedure: as §1

conjunctiva = assay: In vitro transport of GFX prodrugs across conjunctiva; type: in vitro ADME, Rabbit

Row | SMILES | solubility (physchem; water) | solubility (physchem; water for injection) | GFX ocular tissue levels compared with GFX alone (in words) ([1]; all ocular tissues, 1 hr after single topical 30 μl eye drop, 5 mg/ml in PBS) | cumulative % transport / permeability compared with GFX (in words) [2] | transport in presence of OCTN inhibitor L-carnitine ([2]; L-carnitine 500 μM) | transport in presence of OCT competitive inhibitor MPP+ [2] | cumulative % transport in presence vs absence of ATB0+ inhibitor α-methyl tryptophan ([2]; inhibitor 500 μM) | cumulative % transport / permeability compared with GFX (in words) [3] | transport in presence of OCTN inhibitor L-carnitine ([3]; L-carnitine 500 μM) | transport in presence of OCT competitive inhibitor MPP+ [3] | cumulative % transport in presence vs absence of ATB0+ inhibitor α-methyl tryptophan ([3]; inhibitor 500 μM) | levels in posterior tissues compared with GFX (in words) ([1]; vitreous humor and CRPE, 1 h after topical eye drop) | cumulative % transport compared with GFX (in words) (conjunctiva) | transport in presence of OCT competitive inhibitor MPP+ (conjunctiva)
1 | COc1c(N2CCN(C(=O)C(N)CCCNC(=N)N)C(C)C2)c(F)cc2c(=O)c(C(=O)O)cn(C3CC3)c12 (stereo not shown) [GFX-ARG, 7-(4-(2-amino-5-guanidinopentanoyl)-3-methylpiperazin-1-yl)-1-cyclopropyl-6-fluoro-8-methoxy-4-oxo-1,4-dihydroquinoline-3-carboxylic acid] | 25.5 mg/mL (≈ 48 mM) | 25.5 mg/mL (≈ 48 mM) | higher concentrations of GFX in all ocular tissues; also recorded: enhanced ocular delivery to all ocular tissues | significantly improved permeability | did not show any significant inhibitory effect | inhibited significantly | no significant difference | significantly improved permeability | did not show any significant inhibitory effect | inhibited significantly | no significant difference | – | – | –
2 | COc1c(N2CCNC(C)C2)c(F)cc2c(=O)c(C(=O)NCCCN(C)C)cn(C3CC3)c12 (stereo not shown) [GFX-OCT, 1-cyclopropyl-N-(3-(dimethylamino)propyl)-6-fluoro-8-methoxy-7-(3-methylpiperazin-1-yl)-4-oxo-1,4-dihydroquinoline-3-carboxamide] | – | 33.3 mg/mL (≈ 72.4 mM) | – | significantly (p<0.01) higher than GFX | – | significantly inhibited | – | significantly (p<0.01) higher than GFX | – | significantly inhibited | – | higher concentrations of GFX in all posterior tissues | significantly (p<0.01) higher than GFX | significantly inhibited
